The source of these data is ChEMBL document CHEMBL1131899, “First fatty acylated dipeptides to affect muscarinic receptor ligand binding” (Bioorg Med Chem Lett, 1999).

Where a SMILES comes first, the peptide text is derived from it. The star is where a group is joined. Palmitoyl = CCCCCCCCCCCCCCCC(=O)*; Myristoyl = CCCCCCCCCCCCCC(=O)*; OBn = c1ccc(CO*)cc1

Assay [1] concerns the target T1, Muscarinic acetylcholine receptor M1 (Homo sapiens) (UniProt P11229).
T1 sequence (whole entry): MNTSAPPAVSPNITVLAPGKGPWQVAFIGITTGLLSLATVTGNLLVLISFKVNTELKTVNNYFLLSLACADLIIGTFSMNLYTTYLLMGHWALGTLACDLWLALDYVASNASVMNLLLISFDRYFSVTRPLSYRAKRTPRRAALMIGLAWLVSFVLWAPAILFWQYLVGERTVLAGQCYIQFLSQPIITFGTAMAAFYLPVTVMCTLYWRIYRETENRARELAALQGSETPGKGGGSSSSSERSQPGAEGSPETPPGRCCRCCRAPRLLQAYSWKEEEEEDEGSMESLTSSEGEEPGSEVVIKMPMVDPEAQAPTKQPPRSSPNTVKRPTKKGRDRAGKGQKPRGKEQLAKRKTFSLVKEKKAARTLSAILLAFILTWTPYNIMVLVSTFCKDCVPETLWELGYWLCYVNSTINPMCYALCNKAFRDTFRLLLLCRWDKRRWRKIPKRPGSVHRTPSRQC
The assay can be described thus: (§1) Binding of [3H]QNB to HM1 receptor was evaluated by saturation binding assay.

Assay [2] concerns the target T2, Muscarinic acetylcholine receptor M1 (Homo sapiens, UniProt P11229).
T2 sequence (P11229 whole entry): T1 sequence (whole entry)
Described as §1.

For assay [3], the target named is T3, Muscarinic acetylcholine receptor M2 (Homo sapiens) (UniProt P08172).
T3 sequence (whole entry): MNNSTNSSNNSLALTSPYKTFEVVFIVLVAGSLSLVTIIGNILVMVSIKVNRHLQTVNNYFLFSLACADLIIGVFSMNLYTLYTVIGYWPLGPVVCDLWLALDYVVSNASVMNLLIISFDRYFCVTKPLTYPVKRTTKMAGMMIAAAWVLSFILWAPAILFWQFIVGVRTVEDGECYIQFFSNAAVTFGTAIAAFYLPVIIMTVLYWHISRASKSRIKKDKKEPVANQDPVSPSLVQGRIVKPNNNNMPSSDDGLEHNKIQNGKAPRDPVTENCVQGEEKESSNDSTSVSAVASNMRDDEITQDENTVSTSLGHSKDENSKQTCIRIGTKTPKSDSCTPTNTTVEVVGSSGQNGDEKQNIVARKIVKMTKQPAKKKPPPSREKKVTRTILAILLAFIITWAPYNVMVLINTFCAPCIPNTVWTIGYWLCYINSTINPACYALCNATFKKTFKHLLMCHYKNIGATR
The assay can be described thus: (§2) Binding of [3H]QNB to HM2 receptor was evaluated by saturation binding assay.

Assay [4] has as its target T4, Muscarinic acetylcholine receptor M2 (Homo sapiens, UniProt P08172).
T4 sequence (P08172 whole entry): T3 sequence (whole entry)
The assay is described as §2.

Consider `CCCCCCCCCCCCCC(=O)NCC(=O)N[C@@H](CO)C(=O)OCc1ccccc1` (Myristoyl-Gly-Ser-OBn), for which the values for the Bmax in assay [1] and in assay [3] were 1.7 pmol/mg and 0.8 pmol/mg, respectively. The Kd turned out to be 0.04 nM in assay [2] and 0.15 nM in assay [4].

For `CCCCCCCCCCCCCCCC(=O)OC[C@H](NC(=O)CNC(=O)CCCCCCCCCCCCC)C(=O)OCc1ccccc1` (Myristoyl-Gly-Ser(Palmitoyl)-OBn), the Bmax in assay [1] came to 1.2 pmol/mg; in assay [3], 1.8 pmol/mg. Moreover, the dissociation constant Kd was determined as 0.03 nM in assay [2] and 1.78 nM in assay [4].
